Species: Rattus norvegicus
Assay: DrugMatrix - Regimen: Daily Repeat
Format: toxicity, organism-based, Sprague-Dawley
Parameters: regimen Daily Repeat, gender Male, age 6-8 weeks
Settings: in vivo, po, route oral GAVAGE, vehicle .5 % CMC; for ABSOLUTE BASOPHIL / ABSOLUTE EOSINOPHIL / ABSOLUTE LYMPHOCYTE / ABSOLUTE MONOCYTE / ABSOLUTE SEGMENTED NEUTROPHIL / BASOPHIL / EOSINOPHIL / ERYTHROCYTE COUNT / HEMATOCRIT / HEMOGLOBIN / LEUKOCYTE COUNT / LYMPHOCYTE / MEAN CORPUSCULAR HEMOGLOBIN / MEAN CORPUSCULAR HEMOGLOBIN CONCENTRATION / MEAN CORPUSCULAR VOLUME / MONOCYTE / NEUTROPHIL / NUCLEATED RED BLOOD CELLS / PLATELET COUNT: tissue Blood; for ALANINE AMINOTRANSFERASE / ALBUMIN / ALKALINE PHOSPHATASE / ASPARTATE AMINOTRANSFERASE / BLOOD UREA NITROGEN / CARBON DIOXIDE / CHLORIDE / CHOLESTEROL / CREATINE PHOSPHOKINASE / CREATININE / GLUCOSE / LACTATE DEHYDROGENASE / LIPASE / PHOSPHORUS / POTASSIUM / SODIUM / TOTAL BILIRUBIN / TOTAL PROTEIN / URIC ACID: tissue Plasma
[1] = 300 mg/kg, 72 h, dose level Low, time 3 day
[2] = 300 mg/kg, 120 h, dose level Low, time 5 day
[3] = 2000 mg/kg, 72 h, dose level High, time 3 day
[4] = 2000 mg/kg, 120 h, dose level High, time 5 day

Q: What does the source list for `CC1(C)S[C@@H]2[C@H](NC(=O)[C@H](N)c3ccccc3)C(=O)N2[C@H]1C(=O)O` [AMPICILLIN]?
A: ABSOLUTE BASOPHIL [1]: 0 CELLS/uL; ABSOLUTE EOSINOPHIL [1]: 0 CELLS/uL; ABSOLUTE LYMPHOCYTE [1]: 16747 CELLS/uL; ABSOLUTE MONOCYTE [1]: 205.33 CELLS/uL; ABSOLUTE SEGMENTED NEUTROPHIL [1]: 2214.33 CELLS/uL; BASOPHIL [1]: 0%; EOSINOPHIL [1]: 0%; ERYTHROCYTE COUNT [1]: 5.53 x10E6/uL; HEMATOCRIT [1]: 34.2%; HEMOGLOBIN [1]: 13.4 G/DL; LEUKOCYTE COUNT [1]: 19.17 x10E3/uL; LYMPHOCYTE [1]: 87.33%; MEAN CORPUSCULAR HEMOGLOBIN [1]: 24.23 pg; MEAN CORPUSCULAR HEMOGLOBIN CONCENTRATION [1]: 39.17 G/DL; MEAN CORPUSCULAR VOLUME [1]: 61.9 fL; MONOCYTE [1]: 1%; NEUTROPHIL [1]: 11.67%; NUCLEATED RED BLOOD CELLS [1]: 0 /100WBC; PLATELET COUNT [1]: 1348.33 x10E3/uL; ALANINE AMINOTRANSFERASE [1]: 47.67 u/L; ALBUMIN [1]: 4.03 G/DL; ALKALINE PHOSPHATASE [1]: 258.67 u/L; ASPARTATE AMINOTRANSFERASE [1]: 88 u/L; BLOOD UREA NITROGEN [1]: 17.67 mg/dL; CARBON DIOXIDE [1]: 25.67 mmol/L; CHLORIDE [1]: 101.33 MEQ/L; CHOLESTEROL [1]: 82.67 mg/dL; CREATINE PHOSPHOKINASE [1]: 507.67 u/L; CREATININE [1]: 0.28 mg/dL; GLUCOSE [1]: 170 mg/dL; LACTATE DEHYDROGENASE [1]: 299.67 u/L; LIPASE [1]: 9.33 u/L; PHOSPHORUS [1]: 11.7 mg/dL; POTASSIUM [1]: 6.51 MEQ/L; SODIUM [1]: 143.9 MEQ/L; TOTAL BILIRUBIN [1]: 0.17 mg/dL; TOTAL PROTEIN [1]: 5.87 G/DL; URIC ACID [1]: 2.2 mg/dL; ABSOLUTE BASOPHIL [2]: 0 CELLS/uL; ABSOLUTE EOSINOPHIL [2]: 67.33 CELLS/uL; ABSOLUTE LYMPHOCYTE [2]: 16228 CELLS/uL; ABSOLUTE MONOCYTE [2]: 111.33 CELLS/uL; ABSOLUTE SEGMENTED NEUTROPHIL [2]: 1460 CELLS/uL; BASOPHIL [2]: 0%; EOSINOPHIL [2]: 0.33%; ERYTHROCYTE COUNT [2]: 5.55 x10E6/uL; HEMATOCRIT [2]: 34.3%; HEMOGLOBIN [2]: 13.4 G/DL; LEUKOCYTE COUNT [2]: 17.87 x10E3/uL; LYMPHOCYTE [2]: 91%; MEAN CORPUSCULAR HEMOGLOBIN [2]: 24.2 pg; MEAN CORPUSCULAR HEMOGLOBIN CONCENTRATION [2]: 39.1 G/DL; MEAN CORPUSCULAR VOLUME [2]: 61.93 fL; MONOCYTE [2]: 0.67%; NEUTROPHIL [2]: 8%; NUCLEATED RED BLOOD CELLS [2]: 0 /100WBC; PLATELET COUNT [2]: 1271.67 x10E3/uL; ALANINE AMINOTRANSFERASE [2]: 58.33 u/L; ALBUMIN [2]: 4.17 G/DL; ALKALINE PHOSPHATASE [2]: 353 u/L; ASPARTATE AMINOTRANSFERASE [2]: 84.33 u/L; BLOOD UREA NITROGEN [2]: 16 mg/dL; CARBON DIOXIDE [2]: 25.67 mmol/L; CHLORIDE [2]: 103.33 MEQ/L; CHOLESTEROL [2]: 80.33 mg/dL; CREATINE PHOSPHOKINASE [2]: 323.67 u/L; CREATININE [2]: 0.22 mg/dL; GLUCOSE [2]: 150.33 mg/dL; LACTATE DEHYDROGENASE [2]: 269.33 u/L; LIPASE [2]: 10 u/L; PHOSPHORUS [2]: 13 mg/dL; POTASSIUM [2]: 6.3 MEQ/L; SODIUM [2]: 143.7 MEQ/L; TOTAL BILIRUBIN [2]: 0.13 mg/dL; TOTAL PROTEIN [2]: 5.9 G/DL; URIC ACID [2]: 1.67 mg/dL; ABSOLUTE BASOPHIL [3]: 0 CELLS/uL; ABSOLUTE EOSINOPHIL [3]: 156 CELLS/uL; ABSOLUTE LYMPHOCYTE [3]: 12938 CELLS/uL; ABSOLUTE MONOCYTE [3]: 42 CELLS/uL; ABSOLUTE SEGMENTED NEUTROPHIL [3]: 1064 CELLS/uL; BASOPHIL [3]: 0%; EOSINOPHIL [3]: 1.33%; ERYTHROCYTE COUNT [3]: 5.68 x10E6/uL; HEMATOCRIT [3]: 35.27%; HEMOGLOBIN [3]: 13.93 G/DL; LEUKOCYTE COUNT [3]: 14.2 x10E3/uL; LYMPHOCYTE [3]: 90.33%; MEAN CORPUSCULAR HEMOGLOBIN [3]: 24.53 pg; MEAN CORPUSCULAR HEMOGLOBIN CONCENTRATION [3]: 39.5 G/DL; MEAN CORPUSCULAR VOLUME [3]: 62.13 fL; MONOCYTE [3]: 0.33%; NEUTROPHIL [3]: 8%; NUCLEATED RED BLOOD CELLS [3]: 0 /100WBC; PLATELET COUNT [3]: 1229.33 x10E3/uL; ALANINE AMINOTRANSFERASE [3]: 60 u/L; ALBUMIN [3]: 4.2 G/DL; ALKALINE PHOSPHATASE [3]: 309 u/L; ASPARTATE AMINOTRANSFERASE [3]: 77.67 u/L; BLOOD UREA NITROGEN [3]: 18 mg/dL; CARBON DIOXIDE [3]: 32 mmol/L; CHLORIDE [3]: 100.67 MEQ/L; CHOLESTEROL [3]: 94.33 mg/dL; CREATINE PHOSPHOKINASE [3]: 141 u/L; CREATININE [3]: 0.18 mg/dL; GLUCOSE [3]: 140 mg/dL; LACTATE DEHYDROGENASE [3]: 104 u/L; LIPASE [3]: 9.67 u/L; PHOSPHORUS [3]: 11.33 mg/dL; POTASSIUM [3]: 6.92 MEQ/L; SODIUM [3]: 144.13 MEQ/L; TOTAL BILIRUBIN [3]: 0.17 mg/dL; TOTAL PROTEIN [3]: 6 G/DL; URIC ACID [3]: 1.43 mg/dL; ABSOLUTE BASOPHIL [4]: 0 CELLS/uL; ABSOLUTE EOSINOPHIL [4]: 45.67 CELLS/uL; ABSOLUTE LYMPHOCYTE [4]: 13556.33 CELLS/uL; ABSOLUTE MONOCYTE [4]: 151.67 CELLS/uL; ABSOLUTE SEGMENTED NEUTROPHIL [4]: 1413 CELLS/uL; BASOPHIL [4]: 0%; EOSINOPHIL [4]: 0.33%; ERYTHROCYTE COUNT [4]: 5.47 x10E6/uL; HEMATOCRIT [4]: 33.33%; HEMOGLOBIN [4]: 13.37 G/DL; LEUKOCYTE COUNT [4]: 15.17 x10E3/uL; LYMPHOCYTE [4]: 88.67%; MEAN CORPUSCULAR HEMOGLOBIN [4]: 24.47 pg; MEAN CORPUSCULAR HEMOGLOBIN CONCENTRATION [4]: 40.1 G/DL; MEAN CORPUSCULAR VOLUME [4]: 60.97 fL; MONOCYTE [4]: 1%; NEUTROPHIL [4]: 10%; NUCLEATED RED BLOOD CELLS [4]: 0 /100WBC; PLATELET COUNT [4]: 1262.67 x10E3/uL; ALANINE AMINOTRANSFERASE [4]: 63.33 u/L; ALBUMIN [4]: 4.13 G/DL; ALKALINE PHOSPHATASE [4]: 352 u/L; ASPARTATE AMINOTRANSFERASE [4]: 99 u/L; BLOOD UREA NITROGEN [4]: 19.33 mg/dL; CARBON DIOXIDE [4]: 24 mmol/L; CHLORIDE [4]: 106.67 MEQ/L; CHOLESTEROL [4]: 73 mg/dL; CREATINE PHOSPHOKINASE [4]: 430.33 u/L; CREATININE [4]: 0.2 mg/dL; GLUCOSE [4]: 150.33 mg/dL; LACTATE DEHYDROGENASE [4]: 413.67 u/L; LIPASE [4]: 9.67 u/L; PHOSPHORUS [4]: 11.63 mg/dL; POTASSIUM [4]: 6.95 MEQ/L; SODIUM [4]: 148.53 MEQ/L; TOTAL BILIRUBIN [4]: 0.17 mg/dL; TOTAL PROTEIN [4]: 6.03 G/DL; URIC ACID [4]: 1.6 mg/dL
